Results on five compounds are retold here after patent US20150118179A1, “BIOCIDAL COMPOUNDS AND METHODS FOR USING SAME” (UNIVERSITY OF MANITOBA, priority 2012, published 2015).

Each structure is given as a SMILES string. Like-named read-outs stand apart in the source and are kept apart here.

The test system of test [1] is methicillin resistant Staphylococcus aureus (MRSA 40065). In kind it is cell-based. The settings on record: inoculum 10^6 cfu/ml; for Bacteria Reduction log10 / Bacteria reduction %: [Cl+] 15 ppm. The protocol:
(§1) Pseudomonas aeruginosa (P. aeruginosa) (#73104, Gram-negative) and Staphylococcus aureus (MRSA) (#40065, Gram-positive) were used as the model microorganism to challenge the antibacterial function of the compounds. It should be noticed that both P. aeruginosa and MRSA are biosafety level 2 microorganisms and potentially biohazardous, therefore the following antibacterial assessments were carried out in a Biological Safety Level 2 cabinet and safety precautions were strictly followed.
(§2) Tryptone Soya agar plates were used as platforms for bacterial cell growth and were prepared following the instructions on the bottle (CM 0131, OXOID). The prepared agar was kept at 65° C. after being autoclaved and the resulting agar plates were stored in fridge at 3-4° C. All glassware and related materials were subjected to autoclave or disinfection with 70% ethanol prior to use.
(§3) Several colonies of each bacteria type were suspended in broth solutions (cation-supplemented Mueller-Hinton broth for P. aeruginosa and tryptic soy broth for MRSA) whose concentrations were equivalent to a 0.5 McFarland standard (1×10^8 cfu/ml). This suspension was then diluted 1:100 and 20 μL of the diluted suspension was further diluted in 60 ml of cation-supplemented Mueller-Hinton broth or tryptic soy broth. Then the prepared bacteria inoculums were incubated overnight at 37° C. to obtain logarithmic-phase cultures. For each microbial study, 0.2 ml (0.02 ml for P. aeruginosa) of the cell suspension was diluted in 19.8 mL (19.98 ml for P. aeruginosa) of phosphate-buffered Saline (PBS, 0.1 M Sodium phosphate monobasic, 0.1 M Sodium phosphate dibasic, pH 7.4) to give a cell concentration of 10^6-10^7 cfu/mL (10^5 cfu/ml for P. aeruginosa). 30 μL of each synthesized compound solution (0.28 N stock solution) were added into the cell suspension to achieve a [Cl^+] of 15 ppm and start timing instantly. The mixture was vortexed several times during the reaction. After contact for the desired time intervals, 1.0 ml cell suspension was withdrawn and added to 1.0 ml of 0.02 N sodium thiosulfate and/or Letheen (1% lecithin, 10% peptone and 0.5% tween 80 dissolved in PBS at pH 7.4) to quench the bactericidal effect. The quenched suspension was then serially diluted (10 times less concentrated than the previous one) and 100 μL of each dilution was placed onto agar plates. The same procedure was applied to the blanks as controls with the same matrices but with no synthesized compounds added. Bacterial colonies on the agar plates were enumerated after being incubated at 37° C. for 22 hours.
(§4) Percentage reduction of bacteria (%)=(A−B)/A×100
(§5) Where A is the number of bacterial colonies in the control (cfu/mL), and B is the number of bacteria colonies under the effect of the synthesized compounds.

In the next test the test system is P. aeruginosa (73104). Description: Antibacterial assessment in PBS suspension (Example 19). In kind it is cell-based, Pseudomonas aeruginosa. The settings on record: inoculum 10^5 cfu/ml; for Bacteria Reduction log10 / Bacteria reduction %: [Cl+] 15 ppm. How it is done:
as §1, §2, §3, §4, §5

Consider `CCCCCC[N+](C)(C)CCCN1C(=O)NC(C)(C)C1=O` [Compound 5], for which the “Bactericidal effect (bacteria reduction at various contact time)” value in test [1] (Table 10, contact 1-60 min) is given as “No bactericidal effect”; in the test on P. aeruginosa (73104) (Table 10, contact 3-60 min), “No bactericidal effect”.

On to `CCCCCC[N+](C)(C)CCCN1C(=O)N(Cl)C(C)(C)C1=O.[Cl-]` [Compound 6], for which the “Bacteria Reduction log10” value in test [1] (Table 10, contact 1 min) was 0.66 log10; in test [1] (Table 10, contact 3 min), 0.67 log10; in test [1] (Table 10, contact 5 min), 0.76 log10; in test [1] (Table 10, contact 10 min), 1.00 log10; in test [1] (Table 10, contact 60 min) it was 2.11 log10; in the test on P. aeruginosa (73104) (Table 10, contact 3 min) it was 0.24 log10. For the same compound, the “Bacteria Reduction log10” value is listed as 0.30 log10 in the test with P. aeruginosa (73104) (Table 10, contact 10 min); 0.50 log10 in the test on P. aeruginosa (73104) (Table 10, contact 20 min); 1.52 log10 in the test with P. aeruginosa (73104) (Table 10, contact 30 min); 5.80 log10 in the test with P. aeruginosa (73104) (Table 10, contact 60 min). Besides, the “Bacteria reduction %” value is on record as 78.3% in test [1] (Table 10, contact 1 min); 78.9% in test [1] (Table 10, contact 3 min); 82.8% in test [1] (Table 10, contact 5 min); 89.3% in test [1] (Table 10, contact 10 min); 99.2% in test [1] (Table 10, contact 60 min); 42.7% with P. aeruginosa (73104) (Table 10, contact 3 min). In addition, the “Bacteria reduction %” value with P. aeruginosa (73104) (Table 10, contact 10 min) is 49.3%; in the test with P. aeruginosa (73104) (Table 10, contact 20 min), 68.6%; in the test on P. aeruginosa (73104) (Table 10, contact 30 min), 97.0%; with P. aeruginosa (73104) (Table 10, contact 60 min), 100%.

`CCCCCCCCCCCC[N+](C)(C)CCCN1C(=O)NC(C)(C)C1=O` [Compound 7]: the “Bacteria Reduction log10” value in test [1] (Table 10, contact 1 min) is 0 log10; in test [1] (Table 10, contact 3 min), 0 log10; in test [1] (Table 10, contact 5 min), 0.85 log10; in test [1] (Table 10, contact 10 min), 2.59 log10; in test [1] (Table 10, contact 60 min), 6.26 log10; in the test on P. aeruginosa (73104) (Table 10, contact 3 min), 5.80 log10. Besides, the “Bacteria Reduction log10” value turned out to be 5.80 log10 in the test with P. aeruginosa (73104) (Table 10, contact 10 min); 5.80 log10 in the test on P. aeruginosa (73104) (Table 10, contact 20 min); 5.80 log10 in the test on P. aeruginosa (73104) (Table 10, contact 30 min); 5.80 log10 in the test with P. aeruginosa (73104) (Table 10, contact 60 min). Moreover, the “Bacteria reduction %” value in test [1] (Table 10, contact 1 min) is listed as 0%; in test [1] (Table 10, contact 3 min), 0%; in test [1] (Table 10, contact 5 min), 85.6. %; in test [1] (Table 10, contact 10 min), 99.7%; in test [1] (Table 10, contact 60 min), 100%; with P. aeruginosa (73104) (Table 10, contact 3 min), 100%. Moreover, the “Bacteria reduction %” value came to 100% in the test on P. aeruginosa (73104) (Table 10, contact 10 min); 100% in the test with P. aeruginosa (73104) (Table 10, contact 20 min); 100% in the test with P. aeruginosa (73104) (Table 10, contact 30 min); 100% in the test with P. aeruginosa (73104) (Table 10, contact 60 min).

For the compound `CCCCCCCCCCCC[N+](C)(C)CCCN1C(=O)N(Cl)C(C)(C)C1=O.[Cl-]` [Compound 8], the “Bacteria Reduction log10” value is recorded as 0.13 log10 in test [1] (Table 10, contact 1 min); 6.26 log10 in test [1] (Table 10, contact 3 min); 6.26 log10 in test [1] (Table 10, contact 5 min); 6.26 log10 in test [1] (Table 10, contact 10 min); 6.26 log10 in test [1] (Table 10, contact 60 min); 5.80 log10 with P. aeruginosa (73104) (Table 10, contact 3 min). The “Bacteria Reduction log10” value worked out at 5.80 log10 in the test with P. aeruginosa (73104) (Table 10, contact 10 min); 5.80 log10 in the test on P. aeruginosa (73104) (Table 10, contact 20 min); 5.80 log10 with P. aeruginosa (73104) (Table 10, contact 30 min); 5.80 log10 in the test on P. aeruginosa (73104) (Table 10, contact 60 min). Besides, the “Bacteria reduction %” value in test [1] (Table 10, contact 1 min) was determined as 26.1%; in test [1] (Table 10, contact 3 min), 100%; in test [1] (Table 10, contact 5 min) it was 100%; in test [1] (Table 10, contact 10 min) it was 100%; in test [1] (Table 10, contact 60 min), 100%; in the test with P. aeruginosa (73104) (Table 10, contact 3 min) it was 100%. Further, the “Bacteria reduction %” value with P. aeruginosa (73104) (Table 10, contact 10 min) was found to be 100%; in the test with P. aeruginosa (73104) (Table 10, contact 20 min), 100%; with P. aeruginosa (73104) (Table 10, contact 30 min), 21.4%; in the test on P. aeruginosa (73104) (Table 10, contact 60 min) it was 100%.

With `CC1(C)C(=O)N(CC[N+](C)(C)C)C(=O)N1Cl.[Cl-]` [Compound 10], the “Bacteria Reduction log10” value in test [1] (Table 10, contact 1 min) came out at 0.74 log10; in test [1] (Table 10, contact 3 min) it was 0.63 log10; in test [1] (Table 10, contact 5 min), 0.50 log10; in test [1] (Table 10, contact 10 min), 0.81 log10; in test [1] (Table 10, contact 60 min), 1.33 log10; with P. aeruginosa (73104) (Table 10, contact 10 min), 0.35 log10. Moreover, the “Bacteria Reduction log10” value amounted to 5.27 log10 in the test with P. aeruginosa (73104) (Table 10, contact 20 min); 5.27 log10 in the test with P. aeruginosa (73104) (Table 10, contact 30 min); 5.27 log10 in the test with P. aeruginosa (73104) (Table 10, contact 60 min). In addition, the “Bacteria reduction %” value in test [1] (Table 10, contact 1 min) was 81.7%; in test [1] (Table 10, contact 3 min) it was 76.7%; in test [1] (Table 10, contact 5 min), 68.2%; in test [1] (Table 10, contact 10 min), 84.5%; in test [1] (Table 10, contact 60 min), 95.3%; in the test on P. aeruginosa (73104) (Table 10, contact 10 min), 55.1%. Also, the “Bacteria reduction %” value in the test on P. aeruginosa (73104) (Table 10, contact 20 min) is on record as 100%; in the test on P. aeruginosa (73104) (Table 10, contact 30 min), 100%; in the test with P. aeruginosa (73104) (Table 10, contact 60 min), 100%.
